# According to patent US11427604B2 (Mindset Pharma Inc., priority 2020, dated 2022):
# “And” between values parts separate entries of the source, which are not always exact repeats. Identical values can stand only once.
# Legend:
# [1] = Mouse liver microsomes stability with NADPH
# Method: The objective of this study was to estimate in vitro metabolic stability of 1-45 in pooled human and male mouse liver microsomes. The concentrations of exemplary compounds in reaction systems were evaluated by LC-MS/MS for estimating the stability in pooled human and male mouse liver microsomes. The in vitro intrinsic clearances of test compounds were determined as well.
# A master solution in the “Incubation Plate” containing phosphate buffer, ultra-pure H2O, MgCl2 solution and liver microsomes was made according to Table --. The mixture was pre-warmed at 37° C. water bath for 5 minutes.
# 40 μL of 10 mM NADPH solution was added to each well. The final concentration of NADPH was 1 mM. The negative control samples were prepared by replacing NADPH with 40 μL of ultra-pure H2O. Samples were prepared in duplicate. Negative controls were prepared in singlet.
# The reaction was started with the addition of 4 μL of 200 μM test compounds or control compounds to each master solution to get the final concentration of 2 μM. This study was performed in duplicate.
# Aliquots of 50 μL were taken from the reaction solution at 0, 15, 30, 45 and 60 minutes. The reaction solutions were stopped by the addition of 4 volumes of cold methanol with IS (100 nM alprazolam, 200 nM imipramine, 200 nM labetalol and 2 μM ketoprofen). Samples were centrifuged at 3,220 g for 40 minutes. Aliquot of 90 μL of the supernatant was mixed with 90 μL of ultra-pure H2O and then was used for LC-MS/MS analysis.
# LC/MS analysis was performed for all samples from this study using a Shimadzu liquid chromatograph separation system equipped with degasser DGU-20A5R; solvent delivery unit LC-30AD; system controller SIL-30AC; column oven CTO-30A; CTC Analytics HTC PAL System. Mass spectrometric analysis was performed using an Triple Quad™ 5500 instrument.
# All calculations were carried out using Microsoft Excel. Peak area ratios of test compound to internal standard (listed in the below table) were determined from extracted ion chromatograms.
# All calculations were carried out using Microsoft Excel. Peak areas were determined from extracted ion chromatograms. The slope value, k, was determined by linear regression of the natural logarithm of the remaining percentage of the parent drug vs. incubation time curve.
# Conversion of the in vitro t1/2 (min) into the in vitro intrinsic clearance (in vitro CLint, in μL/min/mg proteins) was done using the following equation (mean of duplicate determinations):
# [formula] […] Results & Discussion
# C57BL/6J mice = test: Mouse head twitch response (HTR); format: in vivo; conditions: for Head Twitch 10 mins, AVG / Head Twitch 20 mins, AVG / Head Twitch 30 mins, AVG / Head Twitch 40 mins, AVG / Head Twitch 50 mins, AVG / Head Twitch 60 mins, AVG / Head Twitch Total, AVG: group mean; for Head Twitch Total, AVG: over 1 h
# Method: Data is expressed as mean±SEM. The induction of head twitches elicited by 5-HT2A receptor agonists is believed to represent a behavioural proxy of their psychedelic effects.
# The effect of different doses of exemplary compounds of Formula I were evaluated on head-twitch response (HTR) as a behavior-based model of psychedelic activity.
# Male, C57BL/6J mice (body weight range 20-30 g) were dosed with the appropriate dose of test article, and following a 1-minute pre-treatment time, placed in individual observation chambers. Animals were visually assessed for the incidence head twitches continuously over a 1 hr period. Head twitches were defined as a rapid jerk of the head which was not elicited by an external tactile stimulus (Corne and Pickering, Psychopharmacologia, 1967, 11(1): 65-78). Each head twitch was individually counted by a trained observer, and the data expressed as the mean+SEM of 6-10 mice per group. Mice were used in a single experiment only.
structure (smiles),measurement,setting,value
"[2H]C([2H])([2H])N(C([2H])([2H])[2H])C([2H])([2H])C([2H])([2H])c1c[nH]c2cccc(O)c12 [Compound I-45, 3-(2-(bis(methyl-d3)amino)ethyl-1,1,2,2-d4)-1H-indol-4-ol]",Remaining Percentage (%) after 60 min,"[1]; Mouse, with NADPH, 2 μM",64.91%
same,half-life at 2 μM,"[1]; male, mouse, microsomes",1.6 h
same,microsomal CLint at 2 μM,"[1]; male, mouse, microsomes",14.4 µL/min/mg
same,"Head Twitch 10 mins, individual animal","C57BL/6J mice; 0.03 mg/kg SC, animals C1-C6",0 (2×) and 1 and 3 and 2 (2×)
same,"Head Twitch 20 mins, individual animal","C57BL/6J mice; 0.03 mg/kg SC, animals C1-C6",0 (5×) and 1
same,"Head Twitch 30 mins, individual animal","C57BL/6J mice; 0.03 mg/kg SC, animals C1-C6",0
same,"Head Twitch 40 mins, individual animal","C57BL/6J mice; 0.03 mg/kg SC, animals C1-C6",0
same,"Head Twitch 50 mins, individual animal","C57BL/6J mice; 0.03 mg/kg SC, animals C1-C6",0 (5×) and 1
same,"Head Twitch 60 mins, individual animal","C57BL/6J mice; 0.03 mg/kg SC, animals C1-C6",0
same,"Head Twitch Total, individual animal","C57BL/6J mice; 0.03 mg/kg SC, animals C1-C6, over 1 h",0 and 1 (2×) and 4 and 2 (2×)
same,"Head Twitch 10 mins, AVG",C57BL/6J mice; 0.03 mg/kg SC,1.3
same,"Head Twitch 20 mins, AVG",C57BL/6J mice; 0.03 mg/kg SC,0.2
same,"Head Twitch 30 mins, AVG",C57BL/6J mice; 0.03 mg/kg SC,0.0
same,"Head Twitch 40 mins, AVG",C57BL/6J mice; 0.03 mg/kg SC,0.0
same,"Head Twitch 50 mins, AVG",C57BL/6J mice; 0.03 mg/kg SC,0.2
same,"Head Twitch 60 mins, AVG",C57BL/6J mice; 0.03 mg/kg SC,0.0
same,"Head Twitch Total, AVG",C57BL/6J mice; 0.03 mg/kg SC,1.7
same,"Head Twitch 10 mins, individual animal","C57BL/6J mice; 0.1 mg/kg SC, animals P1-P10",3 and 6 and 0 (3×) and 1 (3×) and 2 (2×)
same,"Head Twitch 20 mins, individual animal","C57BL/6J mice; 0.1 mg/kg SC, animals P1-P10",1 (4×) and 0 (4×) and 2 (2×)
same,"Head Twitch 30 mins, individual animal","C57BL/6J mice; 0.1 mg/kg SC, animals P1-P10",0 (6×) and 1 (4×)
same,"Head Twitch 40 mins, individual animal","C57BL/6J mice; 0.1 mg/kg SC, animals P1-P10",1 (2×) and 0 (8×)
same,"Head Twitch 50 mins, individual animal","C57BL/6J mice; 0.1 mg/kg SC, animals P1-P10",0 (7×) and 2 and 1 (2×)
same,"Head Twitch 60 mins, individual animal","C57BL/6J mice; 0.1 mg/kg SC, animals P1-P10",0
same,"Head Twitch Total, individual animal","C57BL/6J mice; 0.1 mg/kg SC, animals P1-P10, over 1 h",5 and 9 and 3 (3×) and 2 (3×) and 1 and 4
same,"Head Twitch 10 mins, AVG",C57BL/6J mice; 0.1 mg/kg SC,1.6
same,"Head Twitch 20 mins, AVG",C57BL/6J mice; 0.1 mg/kg SC,0.8
same,"Head Twitch 30 mins, AVG",C57BL/6J mice; 0.1 mg/kg SC,0.4
same,"Head Twitch 40 mins, AVG",C57BL/6J mice; 0.1 mg/kg SC,0.2
same,"Head Twitch 50 mins, AVG",C57BL/6J mice; 0.1 mg/kg SC,0.4
same,"Head Twitch 60 mins, AVG",C57BL/6J mice; 0.1 mg/kg SC,0.0
same,"Head Twitch Total, AVG",C57BL/6J mice; 0.1 mg/kg SC,3.4
same,"Head Twitch 10 mins, individual animal","C57BL/6J mice; 0.3 mg/kg SC, animals Q1-Q10",3 and 1 (4×) and 0 (2×) and 2 (3×)
same,"Head Twitch 20 mins, individual animal","C57BL/6J mice; 0.3 mg/kg SC, animals Q1-Q10",0 (4×) and 1 (6×)
same,"Head Twitch 30 mins, individual animal","C57BL/6J mice; 0.3 mg/kg SC, animals Q1-Q10",1 (3×) and 0 (6×) and 3
same,"Head Twitch 40 mins, individual animal","C57BL/6J mice; 0.3 mg/kg SC, animals Q1-Q10",0 (8×) and 1 and 2
same,"Head Twitch 50 mins, individual animal","C57BL/6J mice; 0.3 mg/kg SC, animals Q1-Q10",0 (8×) and 1 (2×)
same,"Head Twitch 60 mins, individual animal","C57BL/6J mice; 0.3 mg/kg SC, animals Q1-Q10",0
same,"Head Twitch Total, individual animal","C57BL/6J mice; 0.3 mg/kg SC, animals Q1-Q10, over 1 h",4 (4×) and 2 (2×) and 1 and 3 and 6 and 0
same,"Head Twitch 10 mins, AVG",C57BL/6J mice; 0.3 mg/kg SC,1.3
same,"Head Twitch 20 mins, AVG",C57BL/6J mice; 0.3 mg/kg SC,0.6
same,"Head Twitch 30 mins, AVG",C57BL/6J mice; 0.3 mg/kg SC,0.6
same,"Head Twitch 40 mins, AVG",C57BL/6J mice; 0.3 mg/kg SC,0.3
same,"Head Twitch 50 mins, AVG",C57BL/6J mice; 0.3 mg/kg SC,0.2
same,"Head Twitch 60 mins, AVG",C57BL/6J mice; 0.3 mg/kg SC,0.0
same,"Head Twitch Total, AVG",C57BL/6J mice; 0.3 mg/kg SC,3.0
same,"Head Twitch 10 mins, individual animal","C57BL/6J mice; 1 mg/kg SC, animals R1-R6",0 and 4 and 1 and 3 (3×)
same,"Head Twitch 20 mins, individual animal","C57BL/6J mice; 1 mg/kg SC, animals R1-R6",0 (2×) and 2 and 1 and 7 and 8
same,"Head Twitch 30 mins, individual animal","C57BL/6J mice; 1 mg/kg SC, animals R1-R6",1 (2×) and 0 (3×) and 3
same,"Head Twitch 40 mins, individual animal","C57BL/6J mice; 1 mg/kg SC, animals R1-R6",0 (4×) and 2 (2×)
same,"Head Twitch 50 mins, individual animal","C57BL/6J mice; 1 mg/kg SC, animals R1-R6",0
same,"Head Twitch 60 mins, individual animal","C57BL/6J mice; 1 mg/kg SC, animals R1-R6",0
same,"Head Twitch Total, individual animal","C57BL/6J mice; 1 mg/kg SC, animals R1-R6, over 1 h",1 and 6 and 2 and 3 and 15 and 14
same,"Head Twitch 10 mins, AVG",C57BL/6J mice; 1 mg/kg SC,2.3
same,"Head Twitch 20 mins, AVG",C57BL/6J mice; 1 mg/kg SC,3.0
same,"Head Twitch 30 mins, AVG",C57BL/6J mice; 1 mg/kg SC,0.8
same,"Head Twitch 40 mins, AVG",C57BL/6J mice; 1 mg/kg SC,0.7
same,"Head Twitch 50 mins, AVG",C57BL/6J mice; 1 mg/kg SC,0.0
same,"Head Twitch 60 mins, AVG",C57BL/6J mice; 1 mg/kg SC,0.0
same,"Head Twitch Total, AVG",C57BL/6J mice; 1 mg/kg SC,6.8
same,"Head Twitch 10 mins, individual animal","C57BL/6J mice; 3 mg/kg SC, animals S1-S6",1 (2×) and 3 and 2 and 6 and 0
same,"Head Twitch 20 mins, individual animal","C57BL/6J mice; 3 mg/kg SC, animals S1-S6",2 (2×) and 1 and 0 and 3 and 5
same,"Head Twitch 30 mins, individual animal","C57BL/6J mice; 3 mg/kg SC, animals S1-S6",2 (2×) and 1 (3×) and 0
same,"Head Twitch 40 mins, individual animal","C57BL/6J mice; 3 mg/kg SC, animals S1-S6",2 and 0 (4×) and 3
same,"Head Twitch 50 mins, individual animal","C57BL/6J mice; 3 mg/kg SC, animals S1-S6",1 (2×) and 0 (4×)
same,"Head Twitch 60 mins, individual animal","C57BL/6J mice; 3 mg/kg SC, animals S1-S6",0 (5×) and 1
same,"Head Twitch Total, individual animal","C57BL/6J mice; 3 mg/kg SC, animals S1-S6, over 1 h",8 and 5 and 3 and 4 and 14 and 7
same,"Head Twitch 10 mins, AVG",C57BL/6J mice; 3 mg/kg SC,2.2
same,"Head Twitch 20 mins, AVG",C57BL/6J mice; 3 mg/kg SC,2.2
same,"Head Twitch 30 mins, AVG",C57BL/6J mice; 3 mg/kg SC,1.2
same,"Head Twitch 40 mins, AVG",C57BL/6J mice; 3 mg/kg SC,0.8
same,"Head Twitch 50 mins, AVG",C57BL/6J mice; 3 mg/kg SC,0.3
same,"Head Twitch 60 mins, AVG",C57BL/6J mice; 3 mg/kg SC,0.2
same,"Head Twitch Total, AVG",C57BL/6J mice; 3 mg/kg SC,6.8
same,"Head Twitch 10 mins, individual animal","C57BL/6J mice; 10 mg/kg SC, animals T1-T6",3 and 1 (2×) and 0 (3×)
same,"Head Twitch 20 mins, individual animal","C57BL/6J mice; 10 mg/kg SC, animals T1-T6",1 (2×) and 0 (4×)
same,"Head Twitch 30 mins, individual animal","C57BL/6J mice; 10 mg/kg SC, animals T1-T6",0
same,"Head Twitch 40 mins, individual animal","C57BL/6J mice; 10 mg/kg SC, animals T1-T6",0 (4×) and 1 (2×)
same,"Head Twitch 50 mins, individual animal","C57BL/6J mice; 10 mg/kg SC, animals T1-T6",0
same,"Head Twitch 60 mins, individual animal","C57BL/6J mice; 10 mg/kg SC, animals T1-T6",0 (5×) and 3
same,"Head Twitch Total, individual animal","C57BL/6J mice; 10 mg/kg SC, animals T1-T6, over 1 h",4 and 2 and 5 and 0 (2×) and 1
same,"Head Twitch 10 mins, AVG",C57BL/6J mice; 10 mg/kg SC,0.8
same,"Head Twitch 20 mins, AVG",C57BL/6J mice; 10 mg/kg SC,0.3
same,"Head Twitch 30 mins, AVG",C57BL/6J mice; 10 mg/kg SC,0.0
same,"Head Twitch 40 mins, AVG",C57BL/6J mice; 10 mg/kg SC,0.3
same,"Head Twitch 50 mins, AVG",C57BL/6J mice; 10 mg/kg SC,0.0
same,"Head Twitch 60 mins, AVG",C57BL/6J mice; 10 mg/kg SC,0.5
same,"Head Twitch Total, AVG",C57BL/6J mice; 10 mg/kg SC,2.0
same,head twitch frequency compared to vehicle control,"C57BL/6J mice; 0.3-10 mg/kg SC, measured over 1 h",dose dependent increase
